Data: patent US20240246967A1, “AXL COMPOUNDS” (ARCUS BIOSCIENCES, INC., priority 2021, published 2024)

What follows are compounds tested against T1, human MER (Homo sapiens, UniProt Q12866) (assay: HTRF KinEASE-TK biochemical potency assay, MER). Conditions: 1 nM MER, 700 μM ATP, 800 nM TK Substrate-biotin.
T1 construct: purchased Invitrogen
T1 sequence (Q12866 21-999): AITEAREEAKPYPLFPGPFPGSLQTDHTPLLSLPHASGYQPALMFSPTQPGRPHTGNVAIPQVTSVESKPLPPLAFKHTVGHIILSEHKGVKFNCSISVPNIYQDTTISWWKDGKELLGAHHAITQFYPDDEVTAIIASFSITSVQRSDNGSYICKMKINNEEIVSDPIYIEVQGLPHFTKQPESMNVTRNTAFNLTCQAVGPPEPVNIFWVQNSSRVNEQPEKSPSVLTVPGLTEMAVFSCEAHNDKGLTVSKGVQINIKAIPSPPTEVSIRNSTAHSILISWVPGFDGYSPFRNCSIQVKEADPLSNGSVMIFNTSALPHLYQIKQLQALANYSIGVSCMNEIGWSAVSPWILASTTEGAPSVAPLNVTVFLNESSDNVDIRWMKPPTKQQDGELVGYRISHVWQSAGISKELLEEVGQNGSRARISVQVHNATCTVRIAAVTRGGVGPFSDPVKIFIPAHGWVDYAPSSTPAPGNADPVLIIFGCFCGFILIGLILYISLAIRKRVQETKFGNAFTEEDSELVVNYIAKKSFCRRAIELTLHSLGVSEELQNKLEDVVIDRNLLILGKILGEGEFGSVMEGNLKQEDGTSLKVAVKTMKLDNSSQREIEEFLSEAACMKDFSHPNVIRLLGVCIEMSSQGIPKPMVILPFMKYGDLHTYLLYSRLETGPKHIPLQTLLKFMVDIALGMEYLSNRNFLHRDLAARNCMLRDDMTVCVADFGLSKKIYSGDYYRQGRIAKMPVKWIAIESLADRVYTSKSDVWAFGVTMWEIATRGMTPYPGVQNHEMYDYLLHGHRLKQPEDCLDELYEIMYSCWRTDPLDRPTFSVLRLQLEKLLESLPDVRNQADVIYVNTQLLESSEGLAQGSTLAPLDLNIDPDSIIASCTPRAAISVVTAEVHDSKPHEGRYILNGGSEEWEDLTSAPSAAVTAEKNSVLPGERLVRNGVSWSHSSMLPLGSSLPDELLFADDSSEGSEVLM
Description: Purified recombinant human AXL, TYRO3 and MER proteins were purchased from Invitrogen™. 10 nM AXL, 2 nM TYRO3 or MER were incubated with varying concentrations of compounds in 50 mM HEPES, pH 7.4, 10 mM MgCl2, 0.01% BSA, 1 mM DTT and 2% DMSO in a total volume of 20 μl in a 384-well microplate (Corning™ #3640) at RT for 1 h. The AXL, TYRO3 and MER enzymatic reaction was initiated by transferring 10 μl of enzyme and compound mixture into 10 μl of 1.6 μM TK Substrate-biotin (HTRF® KinEASE-TK kit, Cisbio) and 1400 μM ATP pre-incubated in 50 mM HEPES, pH 7.4, 10 mM MgCl2, 0.01% BSA, 1 mM DTT in a 384-well microplate (Corning™ #3640) at RT, giving the final reaction conditions: 5 nM AXL, 1 nM TYRO3 or MER, 800 nM TK Substrate-biotin and 700 μM ATP in 50 mM HEPES, pH 7.4, 10 mM MgCl2, 0.01% BSA, 1 mM DTT and 1% DMSO with varying concentrations of compounds. Following 2 h incubation at RT, the AXL, TYRO3 and MER enzymatic reaction was stopped by transfer of 10 μl of reaction into 10 μl of detection mix (400 nM Streptavidin-XL665, 200-fold dilution TK Antibody-Cryptate and detection buffer, HTRF® KinEASE-TK kit, Cisbio) in a white 384-well microplate (Perkin Elmer, OptiPlate 384). After 1 h incubation at RT, the plate was put into a plate reader (Evision) to read at 665/620 nm (acceptor/donor) for HTRF. The value of the DMSO blank (MIN inhibition=100% activity) was used as a negative control. The positive control was established by adding 5 μl of enzyme and DMSO mixture into 10 μl of detection mix followed by addition of 5 μl of TK Substrate-biotin and ATP mixture (MAX inhibition=0% activity). To calculate the percent activity, Equation 1 was used. Ratio 665/620 is the value at a given compound concentration: […]

Compound	IC50
Cc1cc(-c2n[nH]c3ncc(-c4ccc5c(c4)CC[C@@H](N4CCCC4)CC5)cc23)cc(C)c1C(=O)N1CCNCC1 [Example 55, 1-(2,6-Dimethyl-4-{5-[(7S)-7-(pyrrolidin-1-yl)-6,7,8,9-tetrahydro-5H-benzo[7]annulen-2-yl]-1H-pyrazolo[3,4-b]pyridin-3-yl}benzoyl)piperazine]	100 to 1000 nM
Cc1cc(-c2n[nH]c3ncc(-c4ccc5c(c4)CC[C@@H](N4CCCC4)CC5)cc23)cc(Cl)c1C(=O)N1CCNCC1 [Example 56, 1-(2-Chloro-6-methyl-4-{5-[(7S)-7-(pyrrolidin-1-yl)-6,7,8,9-tetrahydro-5H-benzo[7]annulen-2-yl]-1H-pyrazolo[3,4-b]pyridin-3-yl}benzoyl)piperazine]	< 100 nM
C[C@@H]1CCCN1C1(C)CCc2ccc(-c3cnc4[nH]nc(-c5ccc(C(C)(C)O)c(Cl)c5)c4c3)cc2CC1 (stereo partly drawn) [Example 57, 2-[2-Chloro-4-(5-{7-methyl-7-[(2R)-2-methylpyrrolidin-1-yl]-6,7,8,9-tetrahydro-5H-benzo[7]annulen-2-yl}-1H-pyrazolo[3,4-b]pyridin-3-yl)phenyl]propan-2-ol]	100 to 1000 nM
C[C@H]1CCCN1C1(C)CCc2ccc(-c3cnc4[nH]nc(-c5ccc(C(C)(C)O)c(Cl)c5)c4c3)cc2CC1 (stereo partly drawn) [Example 58, 2-[2-Chloro-4-(5-{7-methyl-7-[(2S)-2-methylpyrrolidin-1-yl]-6,7,8,9-tetrahydro-5H-benzo[7]annulen-2-yl}-1H-pyrazolo[3,4-b]pyridin-3-yl)phenyl]propan-2-ol]	100 to 1000 nM
CC(C)(O)c1ccc(-c2n[nH]c3ncc(-c4cc5c(cn4)CCC(N4CCCC4)CC5)cc23)cc1Cl (stereo not shown) [Example 59, 2-(2-Chloro-4-{5-[7-(pyrrolidin-1-yl)-5H,6H,7H,8H,9H-cyclohepta[c]pyridin-3-yl]-1H-pyrazolo[3,4-b]pyridin-3-yl}phenyl)propan-2-ol]	100 to 1000 nM
CC(C)(O)c1ccc(-c2n[nH]c3ncc(-c4ccc5c(n4)CCC(N4CCCC4)CC5)cc23)cc1Cl (stereo not shown) [Example 60, 2-(2-Chloro-4-{5-[7-(pyrrolidin-1-yl)-5H,6H,7H,8H,9H-cyclohepta[b]pyridin-2-yl]-1H-pyrazolo[3,4-b]pyridin-3-yl}phenyl)propan-2-ol]	100 to 1000 nM
CC(C)(O)c1ccc(-c2n[nH]c3ncc(-c4ccc5c(c4)CC4CCC(C5)C4N4CCCC4)cc23)cc1Cl (stereo not shown) [Example 61, 2-(2-Chloro-4-{5-[13-(pyrrolidin-1-yl)tricyclo[8.2.1.0^3,8]trideca-3,5,7-trien-5-yl]-1H-pyrazolo[3,4-b]pyridin-3-yl}phenyl)propan-2-ol]	> 1000 nM
C[C@@H]1CCCN1C1CCc2ccc(-c3cnc4[nH]nc(-c5ccc(C6(O)CCC6)c(Cl)c5)c4c3)cc2CC1 (stereo partly drawn) [Example 62, 1-[2-Chloro-4-(5-{7-[(2R)-2-methylpyrrolidin-1-yl]-6,7,8,9-tetrahydro-5H-benzo[7]annulen-2-yl}-1H-pyrazolo[3,4-b]pyridin-3-yl)phenyl]cyclobutan-1-ol]	100 to 1000 nM
C[C@@H]1CCCN1C1CCc2ccc(-c3cnc4[nH]nc(-c5ccc(S(N)(=O)=O)c(Cl)c5)c4c3)cc2CC1 (stereo partly drawn) [Example 94, 2-Chloro-4-(5-(7-((R)-2-methylpyrrolidin-1-yl)-6,7,8,9-tetrahydro-5H-benzo[7]annulen-2-yl)-1H-pyrazolo[3,4-b]pyridin-3-yl)benzenesulfonamide]	100 to 1000 nM
C[C@@H]1CCCN1C1(C)CCc2ccc(-c3cnc4[nH]nc(-c5ccc(S(N)(=O)=O)cc5)c4c3)cc2CC1 (stereo partly drawn) [Example 95, 4-(5-(7-Methyl-7-((R)-2-methylpyrrolidin-1-yl)-6,7,8,9-tetrahydro-5H-benzo[7]annulen-2-yl)-1H-pyrazolo[3,4-b]pyridin-3-yl)benzenesulfonamide]	100 to 1000 nM
CC(C)(O)c1ccc(-c2n[nH]c3ncc(-c4ccc5c(c4)CCC4(CCCN4)CC5)cc23)cc1Cl (stereo not shown) [Example 96, 2-[2-Chloro-4-(5-{5,6,8,9-tetrahydrospiro[benzo[7]annulene-7,2′-pyrrolidin]-3-yl}-1H-pyrazolo[3,4-b]pyridin-3-yl)phenyl]propan-2-ol]	> 1000 nM
C[C@@H]1CCCN1C1CCc2ccc(-c3cnc4[nH]nc(-c5ccc(C(C)(C)O)cn5)c4c3)cc2CC1 (stereo partly drawn) [Example 97, 2-[6-(5-{7-[(2R)-2-Methylpyrrolidin-1-yl]-6,7,8,9-tetrahydro-5H-benzo[7]annulen-2-yl}-1H-pyrazolo[3,4-b]pyridin-3-yl)pyridin-3-yl]propan-2-ol]	> 1000 nM
C[C@@H]1CCCN1C1(C)CCc2ccc(-c3cnc4[nH]nc(-c5cnc(C(C)(C)O)c(Cl)c5)c4c3)cc2CC1 (stereo partly drawn) [Example 98, 2-[3-Chloro-5-(5-{7-methyl-7-[(2R)-2-methylpyrrolidin-1-yl]-6,7,8,9-tetrahydro-5H-benzo[7]annulen-2-yl}-1H-pyrazolo[3,4-b]pyridin-3-yl)pyridin-2-yl]propan-2-ol]	100 to 1000 nM
C[C@@H]1CCCN1C1(C)CCc2ccc(-c3cnc4[nH]nc(-c5ccc(C(=O)N[C@@H]6CCOC6)cc5)c4c3)cc2CC1 (stereo partly drawn) [Example 99, 4-(5-{7-Methyl-7-[(2R)-2-methylpyrrolidin-1-yl]-6,7,8,9-tetrahydro-5H-benzo[7]annulen-2-yl}-1H-pyrazolo[3,4-b]pyridin-3-yl)-N-[(3R)-oxolan-3-yl]benzamide]	> 1000 nM
CCS(=N)(=O)c1ccc(-c2n[nH]c3ncc(-c4ccc5c(c4)CCC(C)(N4CCC[C@H]4C)CC5)cc23)cc1 (stereo partly drawn) [Example 100, Ethyl(imino)[4-(5-{7-methyl-7-[(2R)-2-methylpyrrolidin-1-yl]-6,7,8,9-tetrahydro-5H-benzo[7]annulen-2-yl}-1H-pyrazolo[3,4-b]pyridin-3-yl)phenyl]-λ^6-sulfanone]	100 to 1000 nM
C[C@@H]1CCCN1[C@@H]1CCc2cc(-c3cnc4[nH]nc(-c5ccc(S(=O)(=O)C6CC6)cc5)c4c3)cnc2CC1 [Example 101, (2R)-1-(3-{3-[4-(Cyclopropanesulfonyl)phenyl]-1H-pyrazolo[3,4-b]pyridin-5-yl}-5H,6H,7H,8H,9H-cyclohepta[b]pyridin-7-yl)-2-methylpyrrolidine]	> 1000 nM
C[C@@H]1CCCN1[C@H]1CCc2cc(-c3cnc4[nH]nc(-c5ccc(S(=O)(=O)C6CC6)cc5)c4c3)cnc2CC1 [Example 102, (2R)-1-[(7S)-3-{3-[4-(Cyclopropanesulfonyl)phenyl]-1H-pyrazolo[3,4-b]pyridin-5-yl}-5H,6H,7H,8H,9H-cyclohepta[b]pyridin-7-yl]-2-methylpyrrolidine]	> 1000 nM
COC1CCN(S(=O)(=O)c2ccc(-c3n[nH]c4ncc(-c5ccc6c(c5)CCC(C)(N5CCC[C@H]5C)CC6)cc34)cc2)CC1 (stereo partly drawn) [Example 103, 3-(4-((4-Methoxypiperidin-1-yl)sulfonyl)phenyl)-5-(7-methyl-7-((R)-2-methylpyrrolidin-1-yl)-6,7,8,9-tetrahydro-5H-benzo[7]annulen-2-yl)-1H-pyrazolo[3,4-b]pyridine]	> 1000 nM
C[C@@H]1CCCN1C1(C)CCc2ccc(-c3cnc4[nH]nc(-c5ccc(S(=O)(=O)N6CCC6)cc5)c4c3)cc2CC1 (stereo partly drawn) [Example 104, (2R)-1-(2-{3-[4-(Azetidine-1-sulfonyl)phenyl]-1H-pyrazolo[3,4-b]pyridin-5-yl}-7-methyl-6,7,8,9-tetrahydro-5H-benzo[7]annulen-7-yl)-2-methylpyrrolidine]	100 to 1000 nM
